The IC50 is the point on the concentration scale where inhibition reaches its midpoint.

We go through 14 molecules from US20070032529A1, “Pyrazole compounds and their use as antidiabetes agents” (Japan Tobacco Inc., priority 2005, published 2007).

The target in assay [1] is T1, recombinant human liver glycogen phosphorylase (Homo sapiens, UniProt P06737).
T1 construct: made in house; host or cells: Sf9 insect cells (crude homogenate, diluted, used as the enzyme solution)
T1 sequence (P06737 1-847): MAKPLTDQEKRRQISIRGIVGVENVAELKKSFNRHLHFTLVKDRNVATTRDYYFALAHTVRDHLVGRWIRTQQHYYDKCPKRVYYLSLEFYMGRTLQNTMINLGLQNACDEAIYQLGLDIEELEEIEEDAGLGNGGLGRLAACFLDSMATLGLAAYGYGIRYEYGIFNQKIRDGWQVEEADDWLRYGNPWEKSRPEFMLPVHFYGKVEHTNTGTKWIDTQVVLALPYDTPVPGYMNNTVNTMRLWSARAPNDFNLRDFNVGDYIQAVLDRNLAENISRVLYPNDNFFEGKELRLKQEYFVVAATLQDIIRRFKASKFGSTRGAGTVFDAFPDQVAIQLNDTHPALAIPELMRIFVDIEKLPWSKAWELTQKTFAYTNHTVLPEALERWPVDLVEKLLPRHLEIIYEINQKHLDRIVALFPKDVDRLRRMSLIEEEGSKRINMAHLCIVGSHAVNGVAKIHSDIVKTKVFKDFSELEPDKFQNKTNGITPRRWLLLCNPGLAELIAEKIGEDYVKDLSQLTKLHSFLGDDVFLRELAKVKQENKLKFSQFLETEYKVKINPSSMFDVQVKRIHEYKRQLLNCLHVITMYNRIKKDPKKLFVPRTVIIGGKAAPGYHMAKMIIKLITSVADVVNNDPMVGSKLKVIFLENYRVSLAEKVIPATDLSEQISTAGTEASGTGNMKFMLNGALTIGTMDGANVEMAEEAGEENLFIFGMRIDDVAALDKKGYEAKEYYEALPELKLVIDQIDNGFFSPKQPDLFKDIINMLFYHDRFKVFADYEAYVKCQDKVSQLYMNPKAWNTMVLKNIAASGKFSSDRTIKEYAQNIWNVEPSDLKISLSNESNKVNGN
Description: Measuring liver glycogen phosphorylase activity (forward reaction system, NADPH absorbance at 340 nm). It is filed as biochemical. Conditions: enzyme inhibitory activity with respect to liver glycogen phosphorylase; class symbols. The gist of the method:
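Compounds in 1% DMSO; activity taken as blank-subtracted 340 nm absorbance change across 75 min at room temperature. Forward reaction: glucose-1-phosphate released from glycogen converted by coupling enzymes, yielding NADPH; enzyme from recombinant Sf9 homogenate, reaction containing glucose, pH 6.8. IC50 from two-point linear interpolation.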

Another assay relates to db/db mice. Description: Measuring blood plasma glucose concentration in db/db mice (hypoglycemic effect). It is filed as in vivo. Details: key: ++: compounds exhibiting statistically significant hypoglycemic effect at a dose of 10 mg/kg or less; +: compounds exhibiting not significant but obvious hypoglycemic effect at a dose of 10 mg/kg. The settings on record: db/db mice fasted 4 h, oral administration, plasma glucose 1 and 3 hours after administration, dose 10 mg/kg or less, Dunnett test vs solvent. The gist of the method:
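db/db mice aged 9-18 weeks, grouped 5 or 8 per group matched on plasma glucose, fasted 4 h, then dosed orally with compound or 0.5% methylcellulose vehicle. Plasma glucose measured 1 and 3 h post-dose; each timepoint compared against vehicle by Dunnett test.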

Counter-ions that a name gives are not always drawn. Where only a bound is given, the exact number is not on record here.

Take `Cc1ccnc(C)c1CNC(=O)c1cc(NC(=O)c2cc(F)c(F)cc2Cl)[nH]n1` [Example 1-3-1, 5-(2-chloro-4,5-difluoro-benzoylamino)-1H-pyrazole-3-carboxylic acid (2,4-dimethyl-pyridin-3-ylmethyl)-amide dihydrochloride]: in assay [1], the half-inhibitory concentration (IC50) was less than 100 nM. Further, the “vivo (hypoglycemic effect in db/db mice)” value in the assay with db/db mice is reported as “++”.

For `Cc1ccc(CNC(=O)c2cc(NC(=O)c3cc(F)c(F)cc3Cl)[nH]n2)c(Cl)n1` [Example 1-56], the 50% inhibitory concentration (IC50) in assay [1] was less than 100 nM. Further, the “vivo (hypoglycemic effect in db/db mice)” value in the assay with db/db mice was “+”.

For the molecule `CCCCN(C(=O)c1cc(NC(=O)c2cc(F)c(F)cc2Cl)[nH]n1)C1CCOCC1` [Example 1-96], the IC50 in assay [1] was less than 100 nM. Further, the “vivo (hypoglycemic effect in db/db mice)” value in the assay with db/db mice is “+”.

Regarding `O=C(NCc1cccnc1F)c1cc(NC(=O)c2cc(F)c(F)cc2Cl)[nH]n1` [Example 2-27], the IC50 in assay [1] is less than 100 nM. Also, in the assay on db/db mice, the “vivo (hypoglycemic effect in db/db mice)” value is recorded as “+”.

As for `COc1ccc(CN(CC2CC2)C(=O)c2cc(NC(=O)c3cc(F)c(F)cc3Cl)[nH]n2)cn1` [Example 1-128], the IC50 in assay [1] was less than 100 nM. Also, in the assay on db/db mice, the “vivo (hypoglycemic effect in db/db mice)” value was “+”.

With `Cc1ncoc1CNC(=O)c1cc(NC(=O)c2cc(F)c(F)cc2Cl)[nH]n1` [Example 1-2, 5-(2-chloro-4,5-difluoro-benzoylamino)-1H-pyrazole-3-carboxylic acid (4-methyl-oxazol-5-ylmethyl)-amide], the IC50 in assay [1] is less than 100 nM. The “vivo (hypoglycemic effect in db/db mice)” value with db/db mice was “++”.

In the case of `O=C(NCc1ccc(Cl)nc1)c1cc(NC(=O)c2cc(F)c(F)cc2Cl)[nH]n1` [Example 2-23], the half-maximal inhibitory concentration (IC50) in assay [1] is less than 100 nM. Also, the “vivo (hypoglycemic effect in db/db mice)” value in the assay on db/db mice is reported as “+”.

As to `COCCN(C(=O)c1cc(NC(=O)c2cc(F)c(F)cc2Cl)[nH]n1)C1CCCCC1` [Example 1-90], the half-inhibitory concentration (IC50) in assay [1] was less than 100 nM. In addition, the “vivo (hypoglycemic effect in db/db mice)” value with db/db mice is “+”.

With `CN(C)c1nc(Cl)ccc1CNC(=O)c1cc(NC(=O)c2cc(F)c(F)cc2Cl)[nH]n1` [Example 5-30], the 50% inhibitory concentration (IC50) in assay [1] is less than 100 nM. For the same molecule, the “vivo (hypoglycemic effect in db/db mice)” value in the assay with db/db mice was “+”.

Turning to `COc1ccc(CNC(=O)c2cc(NC(=O)c3cc(F)c(F)cc3Cl)[nH]n2)c(OC)n1` [Example 3-46], the half-maximal inhibitory concentration (IC50) in assay [1] was less than 100 nM. In addition, the “vivo (hypoglycemic effect in db/db mice)” value with db/db mice is given as “+”.

As to `O=C(NCc1c(Cl)cncc1Cl)c1cc(NC(=O)c2cc(F)c(F)cc2Cl)[nH]n1` [Example 1-135], in assay [1], the IC50 was less than 100 nM. Also, in the assay with db/db mice, the “vivo (hypoglycemic effect in db/db mice)” value is “+”.

With `C=CCN(C(=O)c1cc(NC(=O)c2cc(F)c(F)cc2Cl)[nH]n1)C1CCCCC1` [Example 1-81], in assay [1], the IC50 is less than 100 nM. For the same molecule, the “vivo (hypoglycemic effect in db/db mice)” value with db/db mice was “+”.

For `Nc1ccc(CNC(=O)c2cc(NC(=O)c3cc(F)c(F)cc3Cl)[nH]n2)cc1` [Example 3-31], in assay [1], the IC50 was less than 100 nM. For the same molecule, the “vivo (hypoglycemic effect in db/db mice)” value in the assay with db/db mice is “+”.

For `COc1nc(C)ccc1CNC(=O)c1cc(NC(=O)c2cc(F)c(F)cc2Cl)[nH]n1` [Example 2-5, 5-(2-chloro-4,5-difluoro-benzoylamino)-1H-pyrazole-3-carboxylic acid (2-methoxy-6-methyl-pyridin-3-ylmethyl)-amide], the half-maximal inhibitory concentration (IC50) in assay [1] is less than 100 nM. Further, the “vivo (hypoglycemic effect in db/db mice)” value with db/db mice is “++”.
